Results taken from ChEMBL document CHEMBL1201862, “PubChem BioAssay data set” (2004).
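Grown in 96-well plates, cells were treated for 48 hours with each compound at five concentrations. Insufficient inhibition: endpoint recorded as highest concentration tested. At the GI50, growth is halved.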 Calls of active or inactive are those of the source. Rule as the data show it: active = GI50 up to about 1.1 µM and inactive = higher.

Tests used:
Assay in all cases: NCI anticancer screen, dose series, 48 h
786-0 = system: 786-0
HOP-62 = system: HOP-62
NCI-H522 = system: NCI-H522
SNB-19 = system: SNB-19
IGROV-1 = system: IGROV-1
ACHN = system: ACHN
SF-268 = system: SF-268
A549 = system: A549
K562 = system: K562
HCT-15 = system: HCT-15
HL-60 = system: HL-60
M14 = system: M14
SF-539 = system: SF-539
COLO 205 = system: COLO 205
OVCAR-8 = system: OVCAR-8
LOX IMVI = system: LOX IMVI
KM12 = system: KM12
SR = system: SR

SMILES	GI50 (786-0)	GI50 (HOP-62)	GI50 (NCI-H522)	GI50 (SNB-19)	GI50 (IGROV-1)	GI50 (ACHN)	GI50 (SF-268)	GI50 (A549)	GI50 (K562)	GI50 (HCT-15)	GI50 (HL-60)	GI50 (M14)	GI50 (SF-539)	GI50 (COLO 205)	GI50 (OVCAR-8)	GI50 (LOX IMVI)	GI50 (KM12)	GI50 (SR)
CCC1(CC)C(=O)NC(=S)N=C1N	> 100 µM (inactive)	> 100 µM (inactive)	> 100 µM (inactive)	> 100 µM (inactive)	> 100 µM (inactive)	> 100 µM (inactive)	> 100 µM (inactive)	> 100 µM (inactive)	> 100 µM (inactive)	> 100 µM	> 100 µM (inactive)	> 100 µM (inactive)	> 100 µM (inactive)	> 100 µM (inactive)	> 100 µM (inactive)	> 100 µM (inactive)		
Cc1ccc(NC(=O)CC/C(CC(=O)C(C)(C)C)=N\Nc2ccc([N+](=O)[O-])cc2[N+](=O)[O-])cc1C	79.6 µM (inactive)	0.0522 µM (active)		> 100 µM (inactive)	90.6 µM (inactive)	45.8 µM (inactive)	> 100 µM (inactive)	37.7 µM (inactive)	28.3 µM (inactive)	41.5 µM	> 10 µM (inactive)	0.0129 µM (active)	59.4 µM (inactive)	> 100 µM (inactive)	59.6 µM (inactive)	31.6 µM (inactive)	67.5 µM (inactive)	39.7 µM (inactive)
NC1=NN(c2ccccc2)C(=O)C1C(=O)CCC(=O)Nc1cccc(Cl)c1 (configuration not stated)	> 100 µM (inactive)	> 100 µM (inactive)	> 100 µM (inactive)	> 100 µM (inactive)	> 100 µM (inactive)	> 100 µM (inactive)	> 100 µM (inactive)	> 100 µM (inactive)	> 100 µM (inactive)	> 100 µM	> 100 µM (inactive)	> 100 µM (inactive)	> 100 µM (inactive)	> 100 µM (inactive)	> 100 µM (inactive)	> 100 µM (inactive)	> 100 µM (inactive)	
COc1cc(C2C(Cl)C(=O)N2NC(=O)Cc2ccccc2)ccc1O (configuration not stated)	83.2 µM (inactive)	> 100 µM (inactive)	21.3 µM (inactive)	47.3 µM (inactive)	> 100 µM (inactive)	93.5 µM (inactive)	> 100 µM (inactive)	> 100 µM (inactive)	35.2 µM (inactive)	> 100 µM	28.1 µM (inactive)	> 100 µM (inactive)		> 100 µM (inactive)	> 100 µM (inactive)	77.4 µM (inactive)	91 µM (inactive)	18.3 µM (inactive)
N#CC(c1ccccn1)c1nc2ccccc2[nH]1 (configuration not stated)	97.5 µM (inactive)	> 100 µM (inactive)	> 100 µM (inactive)	> 100 µM (inactive)		> 100 µM (inactive)	> 100 µM (inactive)	> 100 µM (inactive)	> 100 µM (inactive)		32.3 µM (inactive)	> 100 µM (inactive)		> 100 µM (inactive)	84.5 µM (inactive)			38.5 µM (inactive)
O=c1cc(-c2ccccc2)nc(/C=C(\O)c2ccncc2)n1-c1ccccc1	> 100 µM (inactive)	> 100 µM (inactive)	> 100 µM (inactive)	> 100 µM (inactive)	> 100 µM (inactive)	> 100 µM (inactive)	> 100 µM (inactive)	> 100 µM (inactive)	> 100 µM (inactive)	> 100 µM	> 100 µM (inactive)	> 100 µM (inactive)	> 100 µM (inactive)	> 100 µM (inactive)	> 100 µM (inactive)	> 100 µM (inactive)	> 100 µM (inactive)	
OCC(O)C(OC1OC(CO)C(O)C(O)C1O)c1nn(-c2ccc(F)cc2)c2nc3cc(Cl)c(Cl)cc3cc12 (configuration not stated)	> 100 µM (inactive)	> 100 µM (inactive)	> 100 µM (inactive)	> 100 µM (inactive)		> 100 µM (inactive)	> 100 µM (inactive)		> 100 µM (inactive)	> 100 µM		> 100 µM (inactive)	> 100 µM (inactive)		> 100 µM (inactive)	> 100 µM (inactive)	> 100 µM (inactive)	> 100 µM (inactive)
CC(C)[C@H](COC(C)(C)C)/N=C/N1CSc2ccccc21	49.8 µM (inactive)	41.2 µM (inactive)	31.9 µM (inactive)	37.8 µM (inactive)	34 µM (inactive)	25.7 µM (inactive)	59 µM (inactive)	42 µM (inactive)	33.7 µM (inactive)	84.9 µM	26.4 µM (inactive)	36.3 µM (inactive)	23.5 µM (inactive)	18.9 µM (inactive)	35.2 µM (inactive)	33.7 µM (inactive)	27.6 µM (inactive)	
O=C(/N=C(\Nc1ccccc1)SCCS/C(=N/C(=O)c1cccs1)Nc1ccccc1)c1cccs1	61.4 µM (inactive)	80.4 µM (inactive)	20.9 µM (inactive)	> 100 µM (inactive)	> 100 µM (inactive)	43.6 µM (inactive)	> 10 µM (inactive)	41.8 µM (inactive)	35.2 µM (inactive)	44.6 µM		55.8 µM (inactive)	> 100 µM (inactive)	77.1 µM (inactive)	73.3 µM (inactive)	36.3 µM (inactive)	41 µM (inactive)	
CCCCCCCCCCCCC(Br)C(C)=O (configuration not stated)	> 100 µM (inactive)	> 100 µM (inactive)	> 100 µM (inactive)	> 100 µM (inactive)	> 100 µM (inactive)	> 100 µM (inactive)	> 100 µM (inactive)	> 100 µM (inactive)		> 100 µM	> 100 µM (inactive)	> 100 µM (inactive)	> 100 µM (inactive)	> 100 µM (inactive)	> 100 µM (inactive)	> 100 µM (inactive)	> 100 µM (inactive)	
COc1ccc(/C=N/N=C(\N)NO)c(Cl)c1O	18.4 µM (inactive)	6.21 µM (inactive)	6.82 µM (inactive)	41 µM (inactive)	44.9 µM (inactive)	14.9 µM (inactive)	13.2 µM (inactive)	5.43 µM (inactive)	3.63 µM (inactive)	5.46 µM			12.2 µM (inactive)	33 µM (inactive)	12.2 µM (inactive)	3.1 µM (inactive)	12.5 µM (inactive)	
Cc1ccccc1NC(=O)/C=N/O	> 100 µM (inactive)	> 100 µM (inactive)	> 100 µM (inactive)	> 100 µM (inactive)	> 100 µM (inactive)	> 100 µM (inactive)	> 100 µM (inactive)	> 100 µM (inactive)	> 100 µM (inactive)	> 100 µM	0.429 µM (active)	> 100 µM (inactive)		> 100 µM (inactive)	> 100 µM (inactive)	> 100 µM (inactive)	> 100 µM (inactive)	> 100 µM (inactive)
COC(c1ccccc1)C(c1ccccc1)N1CCOCC1 (configuration not stated)	> 100 µM (inactive)	> 100 µM (inactive)	> 100 µM (inactive)	> 100 µM (inactive)	> 100 µM (inactive)	> 100 µM (inactive)	> 100 µM (inactive)	> 100 µM (inactive)	> 100 µM (inactive)		89.5 µM (inactive)	> 100 µM (inactive)	> 100 µM (inactive)	> 100 µM (inactive)	> 100 µM (inactive)	> 100 µM (inactive)	> 100 µM (inactive)	
O=C1C(Cl)C(c2ccccc2O)N1n1cnc2ccccc2c1=O (configuration not stated)	47.5 µM (inactive)	48.5 µM (inactive)	23.6 µM (inactive)	63.8 µM (inactive)	61.7 µM (inactive)	39.4 µM (inactive)	43.4 µM (inactive)	63.1 µM (inactive)	58.1 µM (inactive)	2.99 µM	13 µM (inactive)	80.2 µM (inactive)		30.1 µM (inactive)	92.7 µM (inactive)	61 µM (inactive)	> 100 µM (inactive)	27.4 µM (inactive)
O=C1Nc2ccccc2N=CC1NC(=O)C(c1ccccc1)c1ccccc1 (configuration not stated)	> 100 µM (inactive)	> 100 µM (inactive)	> 100 µM (inactive)	> 100 µM (inactive)	> 100 µM (inactive)	> 100 µM (inactive)	> 100 µM (inactive)	> 100 µM (inactive)	> 100 µM (inactive)	> 100 µM	> 100 µM (inactive)	> 100 µM (inactive)	> 100 µM (inactive)	> 100 µM (inactive)	> 100 µM (inactive)	> 100 µM (inactive)	> 100 µM (inactive)	
O=C(N/C(=C\c1ccc([N+](=O)[O-])cc1)c1nc2cc(Cl)ccc2[nH]1)c1ccccc1	17.7 µM (inactive)		11.9 µM (inactive)	24.9 µM (inactive)	16.9 µM (inactive)	22 µM (inactive)	18.4 µM (inactive)	20.8 µM (inactive)	12.8 µM (inactive)	13.3 µM	17.2 µM (inactive)	17.3 µM (inactive)	19.1 µM (inactive)		30.1 µM (inactive)		21.1 µM (inactive)	18 µM (inactive)
Cc1ccc(NC(=O)NC23CC4CC(CC(F)(C4)C2)C3)cc1	> 100 µM (inactive)	> 100 µM (inactive)	99.5 µM (inactive)	> 100 µM (inactive)	> 100 µM (inactive)	> 100 µM (inactive)		> 100 µM (inactive)	44.6 µM (inactive)		64.3 µM (inactive)	95.3 µM (inactive)	> 100 µM (inactive)	> 100 µM (inactive)	> 100 µM (inactive)	> 100 µM (inactive)	82.6 µM (inactive)	
